melting point | SMILES
100 to 103 °C | CCC(C)(C)NC(=O)c1cn(CCCSC)c2c(Cl)c(Cl)ccc12
208 to 211 °C | CC(C)(C)CNC(=O)c1cn(CCCS(C)(=O)=O)c2c(Cl)c(Cl)ccc12
170 to 173 °C | CSCCCn1cc(C(=O)NCC(C)(C)C)c2ccc(Cl)c(Cl)c21
